According to patent publication US20250296909A1, “NOVEL BENZENE DERIVATIVE AND IMMUNOSUPPRESSION-RELATED USE THEREOF” (PROVIBIO CO., LTD., priority 2021, published 2025):
Where two headings read alike, the source gives them in different places.

How the values were obtained:
spleen T cells = experiment: T cell proliferation inhibition (CFSE, FACS), CD3/CD28-activated spleen T cells; format: cell-based, C57BL/6 mice; settings: for inhibition at 10 µM / inhibition at 30 µM / inhibition at 50 µM: Mus musculus, T-cell, read-out: Proliferation inhibition rate (%)
Procedure: To investigate whether the compounds obtained in the Preparation Example have an inhibitory effect on T cell proliferation, the T cell proliferation was determined ex vivo using the fluorescent dye carboxyfluorescein diacetate succinimidyl ester (CFSE), which binds to intracellular molecules by covalent bonds.
Spleens were harvested and minced from C57BL/6 mice at 7 weeks of age, and then single cells were isolated using a strainer (40 μm pore size, SPL). Red blood cells were removed using ACK (Ammonium-Chloride-Potassium) lysis buffer to isolate only leukocytes. Subsequently, CD90.2 microbeads (130-121-278, Miltenyi Biotech.) were added, and subjected to react at 4° C. for 20 minutes. After that, spleen T cells were isolated using a MACS Magnetic Stand and LS column. The isolated T cells from the spleen were resuspended in 1 mL of Free media (RPMI-1640+200 U/mL penicillin+200 μg/mL streptomycin), followed by the addition of 0.3 μL of CFSE (10 mM), and reacted at 37° C. for 5 minutes. Subsequently, 10 mL of Free media was added to stop the reaction, and the cells were centrifuged to obtain the cell pellet. RPMI 1640 medium containing 10% FBS, 100 U/mL penicillin, and 100 μg/mL streptomycin was added to suspend the cells, and 2×10^5 cells per well were seeded into a 96-well plate and T cells were activated by treatment with CD3 and CD28 antibodies (each at 0.5 μg/mL).
The compound diluted in DMSO was treated in triplicate at concentrations of 10 μM, 30 μM, and 50 μM, respectively. After incubation at 37° C. with 5% CO2 for 3 days, cell proliferation levels were determined using a FACS Canto machine.
In the FACS graph of FIG. 1, the y-axis represents the quantity (number) of cells, while the x-axis represents the fluorescence level of the cells. […] This reduction in CFSE fluorescence results in a leftward shift along the x-axis in the graph. This indicates cell proliferation.
To collectively indicate the proliferation inhibition rate for the experimental results, the relative value of the proliferation amount after compound administration to the proliferation amount after CD3/CD28+DMSO administration was calculated. Subsequently, it was converted into an inhibition amount and expressed as a percentage, thereby determining the proliferation inhibition rate. Specifically, the proliferation inhibition rate was calculated as follows: […]

[1] = tested on: T lymphocyte cell line Jurkat E6-1; experiment: Cytotoxicity experiment (CCK-8, relative cell survival); format: cell-based; settings: 24 hours, untreated cells = 100%
Procedure: To evaluate the cytotoxicity of the compound according to the present invention, the following experiment was conducted.
The T lymphocyte cell line Jurkat E6-1, purchased from the Korean Cell Line Bank, was cultured in RPMI-1640 medium comprising 10% FBS, 100 U/mL penicillin, and 100 μg/mL streptomycin. After culturing, the cells were harvested and centrifuged at 1,300 rpm for 5 minutes. After removal of the supernatant, the cells were resuspended in the same medium at a concentration of approximately 2.2×10^5 cells/mL, and 90 μL of the cell suspension was distributed per well into a 96-well plate (Costar 96 well cell culture plate, Corning). After treating 10 μL of each compound at different concentrations onto the respective wells of the plate, it was cultured for 24 hours at 37° C. in a 5% CO2 incubator. Subsequently, 10 μL of CCK-8 was added to each well, and it was cultured again for 2 hours at 37° C. in a 5% CO2 incubator. Absorbance was then measured at 450 nm to determine the relative cell survival rate compared to untreated cells, as shown in Table 4.
The values listed in Table 4 represent the relative cell survival rates in the groups treated with each compound at different concentrations, with the cell survival rate of untreated cells set as 100%.

[2] = 72 h, Table 2, 10 μM, 3 days, relative to CD3/CD28+DMSO
[3] = 72 h, Table 2, 30 μM, 3 days, relative to CD3/CD28+DMSO
[4] = 72 h, Table 2, 50 μM, 3 days, relative to CD3/CD28+DMSO
[5] = Table 2, 10 μM, 3 days, relative to CD3/CD28+DMSO
[6] = Table 2, 30 μM, 3 days, relative to CD3/CD28+DMSO
[7] = Table 2, 50 μM, 3 days, relative to CD3/CD28+DMSO
[8] = Table 3 (compounds not belonging to Formula 1), 10 μM
[9] = Table 3 (compounds not belonging to Formula 1), 30 μM
[10] = Table 3 (compounds not belonging to Formula 1), 50 μM

Row | SMILES | inhibition at 10 µM (spleen T cells; [2]) [%] | inhibition at 30 µM (spleen T cells; [3]) [%] | inhibition at 50 µM (spleen T cells; [4]) [%] | Relative cell survival rate (%) ([1]; 10 μM) | Relative cell survival rate (%) ([1]; 20 μM) | Relative cell survival rate (%) ([1]; 30 μM) | Relative cell survival rate (%) ([1]; 50 μM) | Proliferation inhibition rate (%) (spleen T cells; [5]) | Proliferation inhibition rate (%) (spleen T cells; [6]) | Proliferation inhibition rate (%) (spleen T cells; [7]) | inhibition at 10 µM (spleen T cells; [8]) [%] | inhibition at 30 µM (spleen T cells; [9]) [%] | inhibition at 50 µM (spleen T cells; [10]) [%] | cell proliferation read by FACS (FIG. 2) (spleen T cells; concentrations ranging from 10 to 30 μM)
1 | CCCCCCCCCCCCNC(=O)c1cccc(Cl)c1N [Compound 29] | 5 | 33 | 65 | 107 | 80 | 77 | 60 |  |  |  |  |  |  | 
2 | CCCCCCCCCCCCNC(=O)c1ccccc1-c1ncc[nH]1 [Compound 52] | 42 | 95 | 100 | 88 | 85 | 84 | 84 |  |  |  |  |  |  | 
3 | CCCCCCCCCCCCNC(=O)c1ncc(F)cc1F [Compound 34] | 6 | 43 | 87 | 112 | 109 | 101 | 87 |  |  |  |  |  |  | 
4 | CCCCCCCCCCCCNC(=O)Cc1ccccc1 [Compound 25] | 20 | 90 | 99 | 95 | 90 | 87 | 84 |  |  |  |  |  |  | 
5 | CCCCCCCCCCCCNC(=O)c1ccccc1C(=O)O [Compound 37] | 23 | 55 | 65 | 90 | 90 | 90 | 92 |  |  |  |  |  |  | 
6 | CCCCCCCCCCCCNC(=O)c1c(F)cccc1[N+](=O)[O-] [Compound 64] | 79 | 100 | 100 | 91 | 87 | 87 | 87 |  |  |  |  |  |  | 
7 | CCCCCCCCCCCCNS(=O)(=O)c1ccccc1F [Compound 45] |  |  |  | 96 | 94 | 76 | 74 | 30 | 59 | 97 |  |  |  | 
8 | CCCCCCCCCNC(=O)/C=C/c1ccccc1Br [Compound 10] | 15 | 72 | 92 | 91 | 88 | 85 | 83 |  |  |  | 5 | 9 | 3 | 
9 | CCCCCCCCCCCCNS(=O)(=O)c1c(F)cccc1F [Compound 54] | 55 | 60 | 77 | 89 | 83 | 77 | 76 |  |  |  |  |  |  | 
10 | CCCCCCCCCCCCNC(=O)c1ncccc1N [Compound 67] | 35 | 88 | 100 | 94 | 93 | 93 | 92 |  |  |  |  |  |  | 
11 | CCCCCCCCCCCCNC(=O)c1cccnc1Nc1cccc(C(F)(F)F)c1 [Compound 33] | 33 | 100 | 100 | 100 | 91 | 79 | 70 |  |  |  |  |  |  | 
12 | CCCCCCCCCCCCNC(=O)c1cccnc1Cl [Compound 13] | 10 | 48 | 100 | 95 | 71 | 70 | 57 |  |  |  |  |  |  | 
13 | CCCCCCCCCCCCNC(=O)c1ccccc1-n1cccc1 [Compound 84] | 89 | 96 | 100 | 96 | 94 | 96 | 94 |  |  |  |  |  |  | inhibition of cell proliferation
14 | CCCCCCCCCCCCNS(=O)(=O)c1ccccc1[N+](=O)[O-] [Compound 58] | 39 | 51 | 68 | 100 | 98 | 97 | 94 |  |  |  |  |  |  | 
15 | CCCCCCCCCCCCNC(=O)c1cccnn1 [Compound 31] | 15 | 57 | 69 | 111 | 111 | 102 | 102 |  |  |  |  |  |  | 
16 | CCCCCCCCCCCCNC(=O)c1ccccc1I [Compound 63] | 30 | 78 | 89 | 70 | 78 | 75 | 79 |  |  |  |  |  |  | 
17 | CCCCCCCCCCCCNC(=O)c1ncccc1Br [Compound 73] | 32 | 76 | 86 | 94 | 97 | 98 | 104 |  |  |  |  |  |  | 
18 | CCCCCCCCCCCCNC(=O)c1cccnc1C(F)(F)F [Compound 77] |  |  |  | 116 | 124 | 123 | 123 | 24 | 47 | 66 |  |  |  | 
19 | CCCCCCCCCCCCNC(=O)c1ccccc1C(=O)NC1CCCCC1 [Compound 53] | 22 | 65 | 85 | 96 | 97 | 98 | 95 |  |  |  |  |  |  | 
20 | CCCCCCCCCCCCNC(=O)c1cccnc1Br [Compound 76] |  |  |  | 115 | 95 | 92 | 70 | 36 | 49 | 65 |  |  |  | 
21 | CCCCNC(=O)c1ccccc1F [Compound 81] |  |  |  | 103 | 105 | 107 | 108 |  |  |  | 0 | 2 | 22 | 
